According to ChEMBL document CHEMBL5518162, “Design, synthesis, and biological evaluation of 2-amino-6-methyl-phenol derivatives targeting lipid peroxidation with potent anti-ferroptotic activities” (Eur J Med Chem, 2024):
Calls of active or inactive are those of the source. No cut-off for these calls is given here.

Legend:
[1] = Antioxidant activity assessed as DPPH radical scavenging activity at 10 uM; assay type: functional
HT-1080 [2] = test: Anti-ferroptotic activity against RSL3-induced ferroptosis in human HT-1080 cells assessed as inhibition of ferroptosis incubated for 24 hrs by CCK-8 assay; assay type: functional, cell-based; conditions: HT-1080, 24 h
Mus musculus [3] = test: Protection of kidney in ischemia-reperfusion-induced kidney injury C57BL/6Nj mouse model assessed as reduction of blood urea nitrogen level at 10 mg/kg, ip pretreated for 1 hr followed by bilateral artery clamping for 45 mins and measured after 24 hrs; assay type: functional, organism-based
Mus musculus [4] = test: (§1) Protection of kidney in ischemia-reperfusion-induced kidney injury C57BL/6Nj mouse model assessed as reduction of serum creatinine level at 10 mg/kg, ip pretreated for 1 hr followed by bilateral artery clamping for 45 mins and measured after 24 hrs; assay type: functional, organism-based
HT-1080 [5] = test: Effect on TFRC level in unstimulated human HT-1080 cells by measuring mRNA level by qRT-PCT analysis; assay type: functional, cell-based
HT-1080 [6] = test: Effect on TFRC level in RSL3-induced human HT-1080 cells by measuring mRNA level by qRT-PCT analysis; assay type: functional, cell-based
HT-1080 [7] = test: Effect on GPX4 level in unstimulated human HT-1080 cells by measuring mRNA level by qRT-PCT analysis; assay type: functional, cell-based
Mus musculus [8] = test: (§2) Protection of kidney in ischemia-reperfusion-induced kidney injury C57BL/6Nj mouse model assessed as focal necrosis of renal tubular epithelial cells and nuclear fixation at 10 mg/kg, ip pretreated for 1 hr followed by bilateral artery clamping for 45 mins and measured after 24 hrs by hematoxylin and eosin staining based analysis; assay type: functional, organism-based; conditions: time 1545.0 min
HT-1080 [9] = test: Effect on ACSL4 level in RSL3-induced human HT-1080 cells by measuring mRNA level by qRT-PCT analysis; assay type: functional, cell-based
HT-1080 [10] = test: Effect on SLC7A11 level in RSL3-induced human HT-1080 cells by measuring mRNA level by qRT-PCT analysis; assay type: functional, cell-based
HT-1080 [11] = test: Effect on FTH1 level in RSL3-induced human HT-1080 cells by measuring mRNA level by qRT-PCT analysis; assay type: functional, cell-based
HT-1080 [12] = test: Anti-ferroptotic activity against BSO-induced ferroptosis in human HT-1080 cells assessed as […] at 100 nM incubated for 24 hrs by CCK-8 assay; assay type: functional, cell-based
HT-1080 [13] = test: Suppression of RSL-3 induced lipid ROS generation in human HT-1080 cells assessed as decrease in STY-BODIPY oxidation at 100 nM by C11-BODIPY581/591 staining based flow cytometry analysis; assay type: functional, cell-based
HepG2 = test: Anti-ferroptotic activity against RSL3-induced ferroptosis in human HepG2 cells assessed as […] at 100 nM incubated for 24 hrs by CCK-8 assay; assay type: functional, cell-based
HT-1080 [14] = test: Effect on ACSL4 level in unstimulated human HT-1080 cells by measuring mRNA level by qRT-PCT analysis; assay type: functional, cell-based
HT-1080 [15] = test: Anti-ferroptotic activity against FIN56-induced ferroptosis in human HT-1080 cells assessed as reduction in cell death at 100 nM incubated for 24 hrs by CCK-8 assay; assay type: functional, cell-based
HT-1080 [16] = test: Suppression of RSL-3 induced lipid ROS generation in human HT-1080 cells assessed as decrease in STY-BODIPY oxidation at 100 nM by C11-BODIPY581/591 staining based confocal microscopy; assay type: functional, cell-based
HTR-8/SVneo = test: Anti-ferroptotic activity against RSL3-induced ferroptosis in human HTR-8/SVneo cells assessed as […] at 100 nM incubated for 24 hrs by CCK-8 assay; assay type: functional, cell-based
HT-1080 [17] = test: Effect on GPX4 level in RSL3-induced human HT-1080 cells by measuring mRNA level by qRT-PCT analysis; assay type: functional, cell-based
HT-1080 [18] = test: Effect on DMT1 level in RSL3-induced human HT-1080 cells by measuring mRNA level by qRT-PCT analysis; assay type: functional, cell-based
HT-1080 [19] = test: Anti-ferroptotic activity against RSL3-induced ferroptosis in human HT-1080 cells assessed as reduction in cell death at 100 nM incubated for 24 hrs by CCK-8 assay; assay type: functional, cell-based
HT-1080 [20] = test: Anti-ferroptotic activity against erastin-induced ferroptosis in human HT-1080 cells assessed as reduction in cell death at 100 nM incubated for 24 hrs by CCK-8 assay; assay type: functional, cell-based
HT-1080 [21] = test: Effect on DMT1 level in unstimulated human HT-1080 cells by measuring mRNA level by qRT-PCT analysis; assay type: functional, cell-based
HT-1080 [22] = test: Effect on SLC7A11 level in unstimulated human HT-1080 cells by measuring mRNA level by qRT-PCT analysis; assay type: functional, cell-based
Huh-7 = test: Anti-ferroptotic activity against RSL3-induced ferroptosis in human Huh-7 cells assessed as […] at 100 nM incubated for 24 hrs by CCK-8 assay; assay type: functional, cell-based
Mus musculus [23] = test: as §1, with “prevention” for “reduction”, “[…] by measuring 4-HNE” for “serum creatinine level”, “hrs by immunohistochemistry staining based analysis” for “hrs”; assay type: functional, organism-based; conditions: time 1545.0 min
HeLa = test: Anti-ferroptotic activity against RSL3-induced ferroptosis in human HeLa cells assessed as […] at 100 nM incubated for 24 hrs by CCK-8 assay; assay type: functional, cell-based
Mus musculus [24] = test: as §2, with “eosinophilic degeneration” for “necrosis”, “in the extra medullary zone” for “and nuclear fixation”; assay type: functional, organism-based; conditions: time 1545.0 min
HT-1080 [25] = test: Effect on FTH1 level in unstimulated human HT-1080 cells by measuring mRNA level by qRT-PCT analysis; assay type: functional, cell-based
HT-1080 [26] = test: Suppression of RSL3-induced malondialdehyde adducts accumulation in human HT-1080 cells at 100 nM by lipid peroxidation (MDA) assay; assay type: functional, cell-based
HT-1080 [27] = test: Anti-ferroptotic activity against ML210-induced ferroptosis in human HT-1080 cells assessed as reduction in cell death at 100 nM incubated for 24 hrs by CCK-8 assay; assay type: functional, cell-based
HT-1080 [28] = test: Anti-ferroptotic activity against erastin-induced ferroptosis in human HT-1080 cells assessed as preservation of cell viability above […] incubated for 24 hrs by CCK-8 assay; assay type: functional, cell-based
HT-1080 [29] = test: Anti-ferroptotic activity against RSL3-induced ferroptosis in human HT-1080 cells assessed as reduction in cell viability at 250 nM incubated for 24 hrs by CCK-8 assay; assay type: functional
HT-1080 [30] = test: Anti-ferroptotic activity against erastin-induced ferroptosis in human HT-1080 cells assessed as reduction in cell viability at 250 nM incubated for 24 hrs by CCK-8 assay; assay type: functional
HT-1080 [31] = test: Anti-ferroptotic activity against erastin-induced ferroptosis in human HT-1080 cells assessed as […] incubated for 24 hrs by CCK-8 assay; assay type: functional, cell-based
HT-1080 [32] = test: Anti-ferroptotic activity against RSL3-induced ferroptosis in human HT-1080 cells assessed as preservation of cell viability above […] incubated for 24 hrs by CCK-8 assay; assay type: functional, cell-based
HT-1080 [33] = test: Anti-ferroptotic activity against RSL3-induced ferroptosis in human HT-1080 cells assessed as […] incubated for 24 hrs by CCK-8 assay; assay type: functional, cell-based; conditions: dose 0.1-1 µM

CC(=O)c1cccc(N)c1O
Activity [1]: Active
EC50 (HT-1080 [2]): > 10000 nM

COc1c(C)cccc1N
Activity [1]: Active
EC50 (HT-1080 [2]): > 10000 nM

COC(=O)c1ccc(CNc2cccc(C)c2O)cc1
Activity [1]: Active
EC50 (HT-1080 [2]): 164 nM

Nc1cccc(C(=O)O)c1O
Activity [1]: Active
EC50 (HT-1080 [2]): > 10000 nM

Cc1ccc(CNc2cccc(C)c2O)cc1
Activity (Mus musculus [3]): Active
Activity [1]: Active
Activity (Mus musculus [4]): Active
EC50 (HT-1080 [2]): 25.5 nM
Activity (HT-1080 [5]): inactive
Activity (HT-1080 [6]): inactive
Activity (HT-1080 [7]): inactive
Activity (Mus musculus [8]): Active
Activity (HT-1080 [9]): inactive
Activity (HT-1080 [10]): inactive
Activity (HT-1080 [11]): inactive
Activity (HT-1080 [12]): Active
Activity (HT-1080 [13]): Active
Activity (HepG2): Active
Activity (HT-1080 [14]): inactive
Activity (HT-1080 [15]): Active
Activity (HT-1080 [16]): Active
Activity (HTR-8/SVneo): Active
Activity (HT-1080 [17]): inactive
Activity (HT-1080 [18]): inactive
Activity (HT-1080 [19]): Active
Activity (HT-1080 [20]): Active
Activity (HT-1080 [21]): inactive
Activity (HT-1080 [22]): inactive
Activity (Huh-7): Active
Activity (Mus musculus [23]): Active
Activity (HeLa): Active
Activity (Mus musculus [24]): Active
Activity (HT-1080 [25]): inactive
Activity (HT-1080 [26]): Active
Activity (HT-1080 [27]): Active

Cc1cccc(N)c1OCc1ccccc1
Activity [1]: Active
EC50 (HT-1080 [2]): > 10000 nM

COc1ccc(CNc2cccc(C)c2O)cc1
Activity [1]: Active
EC50 (HT-1080 [2]): 78.9 nM

Cc1cccc(N)c1O
Activity [1]: Active
Activity (HT-1080 [28]): Active
EC50 (HT-1080 [2]): 207 nM
Activity (HT-1080 [29]): 100%
Activity (HT-1080 [30]): 100%
Activity (HT-1080 [31]): Dose-Dependent Effect
EC50 (HT-1080 [31]; HT-1080, 24 h): 132 nM
Activity (HT-1080 [32]): Active
Activity (HT-1080 [33]): Dose-Dependent Effect

Cc1cccc(NCc2ccccc2)c1O
Activity [1]: Active
EC50 (HT-1080 [2]): 181 nM

Cc1cccc(NCc2cccc(C#N)c2)c1O
Activity [1]: Active
EC50 (HT-1080 [2]): 158 nM

CCCCNc1cccc(C)c1O
Activity [1]: Active
EC50 (HT-1080 [2]): 74.7 nM
Activity (HT-1080 [5]): inactive
Activity (HT-1080 [6]): inactive
Activity (HT-1080 [7]): inactive
Activity (HT-1080 [9]): inactive
Activity (HT-1080 [10]): inactive
Activity (HT-1080 [11]): inactive
Activity (HT-1080 [13]): Active
Activity (HT-1080 [14]): inactive
Activity (HT-1080 [16]): Active
Activity (HT-1080 [17]): inactive
Activity (HT-1080 [18]): inactive
Activity (HT-1080 [21]): inactive
Activity (HT-1080 [22]): inactive
Activity (HT-1080 [25]): inactive
Activity (HT-1080 [26]): Active

Cc1cccc(NCc2ccc(Cl)cc2)c1O
Activity [1]: Active
EC50 (HT-1080 [2]): 131 nM
Activity (HT-1080 [5]): inactive
Activity (HT-1080 [6]): inactive
Activity (HT-1080 [7]): inactive
Activity (HT-1080 [9]): inactive
Activity (HT-1080 [10]): inactive
Activity (HT-1080 [11]): inactive
Activity (HT-1080 [13]): Active
Activity (HT-1080 [14]): inactive
Activity (HT-1080 [16]): Active
Activity (HT-1080 [17]): inactive
Activity (HT-1080 [18]): inactive
Activity (HT-1080 [21]): inactive
Activity (HT-1080 [22]): inactive
Activity (HT-1080 [25]): inactive
Activity (HT-1080 [26]): Active

CCNc1cccc(C)c1O
Activity [1]: Active
EC50 (HT-1080 [2]): 60.4 nM

Cc1cccc([N+](=O)[O-])c1O
Activity [1]: Active
EC50 (HT-1080 [2]): > 10000 nM

Cc1cccc(NCc2cccc([N+](=O)[O-])c2)c1O
Activity [1]: Active
EC50 (HT-1080 [2]): 149 nM

CCOC(=O)c1ccc(NC2CCCCC2)c(N)c1
Activity [1]: Active
EC50 (HT-1080 [2]): 138 nM
Activity (HT-1080 [13]): Active
Activity (HT-1080 [16]): Active
